Test results as given in patent publication US10266564B2, “Cationic lipid cordiarimide hybrid compounds and a process for preparation thereof” (COUNCIL OF SCIENTIFIC & INDUSTRIAL RESEARCH, priority 2014, dated 2019).

How the values were obtained:
[1] = system: MCF-7 (breast adenocarcinoma); assay: MTT assay for cell viability, MCF-7; assay type: cell-based, human
Experimental: The human cancer cell lines e.g. HepG2 (hepatocellular carcinoma, ATCC® HB-8065™), PC-3 (human prostate cancer cells, ATCC® CRL-1435™), MCF-7 (breast adenocarcinoma, ATCC® […]), and mouse embryo fibroblasts (NIH/3T3, ATCC® CRL-1658™), used in the present study were obtained from the ATCC (American Type Culture Collection, USA and maintained in RPMI 1640 (Roswell Park Memorial Institute, Merck) with 10% FBS (Merck), supplemented with 1% antibiotic and antimycotic solution (Gibco, USA) at 37° C. in a humidified incubator with 5% CO2. All stock solutions of the compounds were prepared in cell culture grade DMSO (dimethyl sulfoxide) and stored at −20° C. Compounds were diluted in culture media prior to use in experiments. Annexin V-FITC apoptosis detection kits were purchased from Calbiochem. MTT dye was procured from Sigma-Aldrich. All the flow cytometry experiments were performed using a FACScan (Becton Dickinson, Mountain View, Calif.) flow cytometer, equipped with a single 488 nm argon laser.
Cell viability was assessed by MTT assay, which is based on the reduction of MTT by mitochondrial dehydrogenases of viable cells to form a purple formazan product. Briefly, cells (5-6×10^3/well) were plated in 96 well plates. After incubating overnight, the cells were treated with […] different concentrations (100, 50, 20, 10, 5, 2.5, 1.25 μM) in triplicates with the cationic lipidated cordiarimide and intermediates for 48 h. Subsequently, 10 μL of MTT (10 mg/mL) was added to each well and incubated for 3 h. The MTT formazan formed by viable cells was dissolved in 100 μL of DMSO and shaken for 10 min. The absorbance was measured on an ELISA reader. Each test was repeated at least three times. The concentration of the compound which gives the 50% growth inhibition value corresponding to IC50, was calculated using GraphPad prism 5 software. In the present invention we have screened 26 lipidated cordiarimides and the results are described in table 1.

HepG2 cells = assay: Apoptosis, annexin V/PI staining by flow cytometry; assay type: cell-based, human; conditions: HepG2, 24 h
Experimental: Quantitation of apoptotic cells by annexin V staining was carried out according to the manufacturer's instructions. Briefly, cells (5×10^5 cells/well) were seeded in 6 well plates and treated with 5 μM of 8h-8k for 24 h. After incubation, cells were washed with PBS and stained with 1.25 μL of annexin V-FITC and 10 μL of media binding reagent and incubated for 20 min. After that 10 μL of PI was added and samples were analyzed using a flow cytometer. Annexin V-FITC was analyzed using excitation and emission settings of 488 nm and 535 nm (FL-1 channel); PI, 488 nm and 610 nm (FL-2 channel). Debris and clumps were gated out using forward and orthogonal light scatter. Each experiment was repeated two times independently. Results are illustrated in FIG. 1 and the percentage of Annexin-V/PI positive cells increased gradually from 20 to 70% after 24 h of treatment (FIG. 1).

ligase IIIβ = target: T1, ligase IIIβ (Homo sapiens, UniProt P49916); assay: Ligation assay, DNA ligase IIIβ; assay type: biochemical
T1 sequence (P49916 43-949 isoform P49916-2 limits assumed): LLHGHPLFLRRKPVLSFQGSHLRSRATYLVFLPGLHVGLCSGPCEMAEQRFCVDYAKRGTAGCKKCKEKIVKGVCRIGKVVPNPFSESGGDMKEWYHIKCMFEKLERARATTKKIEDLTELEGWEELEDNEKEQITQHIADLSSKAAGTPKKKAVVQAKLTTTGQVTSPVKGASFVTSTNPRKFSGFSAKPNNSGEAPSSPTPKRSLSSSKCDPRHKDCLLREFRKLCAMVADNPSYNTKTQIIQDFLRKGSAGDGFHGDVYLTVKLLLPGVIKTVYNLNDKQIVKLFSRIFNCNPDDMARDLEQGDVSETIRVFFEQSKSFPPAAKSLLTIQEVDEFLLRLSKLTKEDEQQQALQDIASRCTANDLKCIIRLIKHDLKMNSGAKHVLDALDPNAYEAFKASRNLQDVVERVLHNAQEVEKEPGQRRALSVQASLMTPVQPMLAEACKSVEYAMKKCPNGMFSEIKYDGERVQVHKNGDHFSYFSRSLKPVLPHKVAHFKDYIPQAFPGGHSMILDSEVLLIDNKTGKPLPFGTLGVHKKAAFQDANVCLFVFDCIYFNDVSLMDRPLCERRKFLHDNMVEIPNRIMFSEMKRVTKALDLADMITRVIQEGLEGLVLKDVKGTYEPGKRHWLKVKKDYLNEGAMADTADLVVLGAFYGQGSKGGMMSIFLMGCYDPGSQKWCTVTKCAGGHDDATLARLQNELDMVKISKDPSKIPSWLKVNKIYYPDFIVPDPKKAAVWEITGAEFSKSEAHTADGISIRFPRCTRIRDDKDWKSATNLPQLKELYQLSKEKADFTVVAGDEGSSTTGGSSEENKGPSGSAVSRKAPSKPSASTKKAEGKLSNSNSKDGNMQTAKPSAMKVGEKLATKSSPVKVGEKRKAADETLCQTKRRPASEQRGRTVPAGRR
Excerpt: The ligation assay was done strictly following the assay protocol described in Xi Chen et. al, Cancer Res 2008; 68(9):3169-3177. The DNA molecules 52 mer (5′-3′), 28-mer (5′-3′) and 34-mer (5′-3′) were used to construct a double stranded nicked substrate for the ligase enzyme (FIG. 4). The 34-mer oligo was labelled with 32P-AMP to form a substrate for ligase and to form a ligase-AMP intermediate. During ligation, the ligase would transfer the AMP to the nick forming a phosphodiester bond and seal the nick. The ligated DNA molecule would be larger in size and run higher up on a 7% Urea-containing denaturing acrylamide gel. If an inhibitor is added to the reaction mixture prior to the addition of ligase, this would lead to an inhibition of ligation and a corresponding loss of labelled ligated product in the gel. We would then be able to calculate the percentage of inhibition of ligation by estimating the amount of ligated product in the lane with no inhibitor and comparing it with the lanes containing different inhibitor molecules or with the same inhibitor molecule at different concentrations.

hLig1 = hLig1 (Homo sapiens, UniProt P18858); assay: Kinetic analysis of ligation inhibition (Lineweaver-Burk); assay type: biochemical; conditions: 5 and 10 μM
Experimental: We measured the kinetics of hLig1 mediated ligation in the absence are presence of 8k at 5 and 10 μM concentrations and drew Lineweaver-Burk plots (FIG. 6B).

Sequence of hLig1 (P18858 whole entry): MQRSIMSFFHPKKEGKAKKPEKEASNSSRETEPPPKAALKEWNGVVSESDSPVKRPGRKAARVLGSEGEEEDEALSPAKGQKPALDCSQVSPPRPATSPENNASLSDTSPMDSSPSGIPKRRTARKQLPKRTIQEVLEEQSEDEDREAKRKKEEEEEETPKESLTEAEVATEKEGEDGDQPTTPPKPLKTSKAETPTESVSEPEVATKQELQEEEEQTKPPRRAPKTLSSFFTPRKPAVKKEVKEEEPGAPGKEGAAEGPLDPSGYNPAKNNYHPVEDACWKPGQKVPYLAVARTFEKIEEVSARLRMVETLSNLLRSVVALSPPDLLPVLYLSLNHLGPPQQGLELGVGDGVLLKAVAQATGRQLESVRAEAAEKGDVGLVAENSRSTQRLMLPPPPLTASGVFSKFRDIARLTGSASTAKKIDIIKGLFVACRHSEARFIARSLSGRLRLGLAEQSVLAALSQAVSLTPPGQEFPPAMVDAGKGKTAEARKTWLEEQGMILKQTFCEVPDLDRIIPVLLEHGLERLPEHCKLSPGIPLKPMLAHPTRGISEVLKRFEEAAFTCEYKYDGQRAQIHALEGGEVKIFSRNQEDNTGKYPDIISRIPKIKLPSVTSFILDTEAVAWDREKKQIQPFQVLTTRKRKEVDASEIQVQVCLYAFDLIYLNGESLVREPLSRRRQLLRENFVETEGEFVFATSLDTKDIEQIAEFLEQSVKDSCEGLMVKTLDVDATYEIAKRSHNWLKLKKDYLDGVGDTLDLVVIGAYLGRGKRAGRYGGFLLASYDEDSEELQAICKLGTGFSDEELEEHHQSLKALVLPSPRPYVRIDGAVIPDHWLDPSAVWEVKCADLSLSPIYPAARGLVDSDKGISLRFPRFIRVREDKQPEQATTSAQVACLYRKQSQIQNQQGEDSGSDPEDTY

`CCCCCCCCCCCC[N+](C)(CCCCCCCCCCCC)CC(=O)NC1CCC(=O)N(CC(=O)c2ccccc2)C1=O` (stereo not drawn) [Compound 8k, {[2,6-Dioxo-1-(2-oxo-2-phenyl-ethyl)-piperidin-3-ylcarbamoyl]-methyl}-Didodecyl-methyl-ammonium iodide] was tested, and the IC50 ([1]; 48 h) was over 20 µM, the IC50 ([1]; Homo sapiens, MCF7, 48 h) was 26.3 µM and the “apoptosis induction (in words)” value (HepG2 cells) was “induced significant amount of apoptosis”. The inhibition at 5 µM (ligase IIIβ; 5 μM) was under 50%, the “ligase III inhibition” value (ligase IIIβ; at concentrations that kill HepG2 cells) was 30% and the “mode of inhibition by enzyme kinetics” value (hLig1) was “un-competitively”.
